In ChEMBL document CHEMBL6092170, “Activity of the Caged Xanthone Morellic Acid against Vancomycin-Resistant Enterococcus Infection by Targeting the Bacterial Membrane” (2024):
≈ marks a conversion by molar mass, not a printed value. Calls of active or inactive are those of the source. The rule behind the calls is not given here.

How the values were obtained:
Enterococcus faecalis [1] = experiment: Antibacterial activity against vancomycin-resistant Enterococcus faecalis ATCC 51299 incubated for 24 hrs by CLSI based microdilution method; format: functional
Staphylococcus aureus [2] = experiment: Antibacterial activity against methicillin-resistant Staphylococcus aureus incubated for 24 hrs by CLSI based microdilution method; format: functional
Enterococcus faecalis [3] = experiment: Antibacterial activity against vancomycin-resistant Enterococcus faecalis ATCC 51299 assessed as bacterial growth inhibition at 0.5 to 4 times MIC measured after 12 hrs by absorbance based assay; format: functional, organism-based
Staphylococcus aureus [4] = experiment: Antibacterial activity against Staphylococcus aureus assessed as bacterial growth inhibition at 0.5 to 4 times MIC measured for 4 hrs by absorbance based assay; format: functional, organism-based
Enterococcus faecalis [5] = experiment: Disruption of morphology in vancomycin-resistant Enterococcus faecalis ATCC 51299 at 4 times MIC incubated for 18 hrs by SEM analysis; format: functional, organism-based
Enterococcus faecalis [6] = experiment: Antibacterial activity against vancomycin-resistant Enterococcus faecalis ATCC 51299 infected in specific pathogen-free Kunming mouse model of abdominal infection assessed as reduction in bacterial load in spleen at 10 mg/kg, ip measured after 72 hrs by plate counting method; format: functional, organism-based
Enterococcus faecalis [7] = experiment: Antibacterial activity against vancomycin-resistant Enterococcus faecalis ATCC 51299 infected in specific pathogen-free Kunming mouse model of abdominal infection assessed as reduction in bacterial load in liver at 10 mg/kg, ip measured after 72 hrs by plate counting method; format: functional, organism-based
Enterococcus faecalis [8] = experiment: Antibacterial activity against vancomycin-resistant Enterococcus faecalis ATCC 51299 infected in specific pathogen-free Kunming mouse model of abdominal infection assessed as reduction in bacterial load in kidney at 10 mg/kg, ip measured after 72 hrs by plate counting method; format: functional, organism-based
Enterococcus faecalis [9] = experiment: Antibacterial activity against vancomycin-resistant Enterococcus faecalis ATCC 51299 infected in specific pathogen-free Kunming mouse model of abdominal infection assessed as reduction in bacterial load in abdominal effusion at 10 mg/kg, ip measured after 72 hrs by plate counting method; format: functional, organism-based
Enterococcus faecalis [10] = experiment: Induction of resistance development in vancomycin-resistant Enterococcus faecalis ATCC 51299 at sub-MIC measured after 20 days of continuous passages; format: functional, organism-based; conditions: time 20.0 day
Enterococcus faecalis [11] = experiment: Induction of resistance development in vancomycin-resistant Enterococcus faecalis ATCC 51299 assessed as fold increase in activity at sub-MIC measured after 4 days of continuous passages relative to control; format: functional; conditions: time 4 day
Enterococcus faecalis [12] = experiment: Disruption of membrane integrity in vancomycin-resistant Enterococcus faecalis ATCC 51299 at 2 times MIC incubated for 2 hrs by Hoechst staining based CLSM analysis; format: functional, organism-based
Enterococcus faecalis [13] = experiment: Disruption of membrane integrity in vancomycin-resistant Enterococcus faecalis ATCC 51299 at 2 times MIC incubated for 2 hrs by PI staining based CLSM analysis; format: functional, organism-based
Enterococcus faecalis [14] = experiment: Disruption of membrane integrity in vancomycin-resistant Enterococcus faecalis ATCC 51299 at 2 times MIC incubated for 2 hrs by SYTOX Green staining based CLSM analysis; format: functional, organism-based

CC(C)=CCc1c(O)c(CC=C(C)C)c2oc3c(O)ccc(O)c3c(=O)c2c1O [GARTANIN]
MIC (Enterococcus faecalis [1]): > 16 µg/mL
MIC (Staphylococcus aureus [2]): > 16 µg/mL

CC(C)=CCc1c(O)cc2oc3cc(O)c(O)c(CC=C(C)C)c3c(=O)c2c1O
MIC (Enterococcus faecalis [1]): 4 µg/mL (≈ 10.1 µM)
MIC (Staphylococcus aureus [2]): 4 µg/mL (≈ 10.1 µM)

COc1c(O)cc2oc3cc(O)c(CCC(C)(C)O)c(O)c3c(=O)c2c1CC=C(C)C
MIC (Enterococcus faecalis [1]): 16 µg/mL (≈ 37.3 µM)
MIC (Staphylococcus aureus [2]): 16 µg/mL (≈ 37.3 µM)

COc1c(O)cc2oc3cc(O)c(CC=C(C)C)c(O)c3c(=O)c2c1CC=C(C)C [MANGOSTIN]
MIC (Enterococcus faecalis [1]): 4 µg/mL (≈ 9.75 µM)
MIC (Staphylococcus aureus [2]): 4 µg/mL (≈ 9.75 µM)

C=C(C)C1CC[C@]2(C)CC1c1c(O)c3c(c(CC=C(C)C)c1O2)O[C@]12C(=C[C@@H]4CC1C(C)(C)OC2(C/C=C(\C)C(=O)O)C4=O)C3=O (stereo partly drawn)
MIC (Enterococcus faecalis [1]): > 16 µg/mL
MIC (Staphylococcus aureus [2]): > 16 µg/mL

CN[C@H](CC(C)C)C(=O)N[C@H]1C(=O)N[C@@H](CC(N)=O)C(=O)N[C@H]2C(=O)N[C@H]3C(=O)N[C@H](C(=O)N[C@H](C(=O)O)c4cc(O)cc(O)c4-c4cc3ccc4O)[C@H](O)c3ccc(c(Cl)c3)Oc3cc2cc(c3O[C@@H]2O[C@H](CO)[C@@H](O)[C@H](O)[C@H]2O[C@H]2C[C@](C)(N)[C@H](O)[C@H](C)O2)Oc2ccc(cc2Cl)[C@H]1O
inhibition (Enterococcus faecalis [3]): inactive

CC(C)=CCC[C@]1(C)CC(O)c2c(O)c3c(c(CC=C(C)C)c2O1)O[C@]12C(=C[C@@H]4C[C@H]1C(C)(C)O[C@@]2(C/C=C(/C)C(=O)O)C4=O)C3=O (stereo partly drawn)
MIC (Enterococcus faecalis [1]): 16 µg/mL (≈ 24.7 µM)
MIC (Staphylococcus aureus [2]): 8 µg/mL (≈ 12.4 µM)

CC1(C)S[C@@H]2[C@H](NC(=O)[C@H](N)c3ccccc3)C(=O)N2[C@H]1C(=O)O [AMPICILLIN]
MIC (Enterococcus faecalis [1]): 4 µg/mL (≈ 11.4 µM)
inhibition (Staphylococcus aureus [4]): Active
Activity (Enterococcus faecalis [5]): Active
Activity (Enterococcus faecalis [6]): Active
Activity (Enterococcus faecalis [7]): Active
Activity (Enterococcus faecalis [8]): Active
Activity (Enterococcus faecalis [9]): Active

CC(C)=CCC[C@]1(C)C=Cc2c(O)c3c(c(CC=C(C)C)c2O1)O[C@]12C(=C[C@@H]4C[C@H]1C(C)(C)O[C@@]2(C/C=C(/C)C(=O)O)C4=O)C3=O [GAMBOGIC ACID]
MIC (Enterococcus faecalis [1]): 4 µg/mL (≈ 6.36 µM)
MIC (Staphylococcus aureus [2]): 4 µg/mL (≈ 6.36 µM)

COc1c(O)cc2oc3cc(O)c(CC=C(C)C)c(O)c3c(=O)c2c1CCC(C)(C)O [GARCINONE D]
MIC (Enterococcus faecalis [1]): 4 µg/mL (≈ 9.34 µM)
MIC (Staphylococcus aureus [2]): 8 µg/mL (≈ 18.7 µM)

CCCCCCCCCC(=O)N[C@@H](Cc1c[nH]c2ccccc12)C(=O)N[C@@H](CC(N)=O)C(=O)N[C@@H](CC(=O)O)C(=O)N[C@@H]1C(=O)NCC(=O)N[C@@H](CCCN)C(=O)N[C@@H](CC(=O)O)C(=O)N[C@H](C)C(=O)N[C@@H](CC(=O)O)C(=O)NCC(=O)N[C@H](CO)C(=O)N[C@@H]([C@@H](C)CC(=O)O)C(=O)N[C@@H](CC(=O)c2ccccc2N)C(=O)O[C@@H]1C
Activity (Enterococcus faecalis [10]): inactive
fold change (FC) (Enterococcus faecalis [11]): 32

CC(C)=CCc1c(O)cc2oc3cc(O)c(O)c(CCC(C)(C)O)c3c(=O)c2c1O
MIC (Enterococcus faecalis [1]): > 16 µg/mL
MIC (Staphylococcus aureus [2]): 4 µg/mL (≈ 9.65 µM)

CC[C@H](C)[C@H](NC(=O)CN)C(=O)NCC(=O)N[C@@H](C)C(=O)N[C@H](C(=O)N[C@@H](CC(C)C)C(=O)N[C@@H](CCCCN)C(=O)N[C@H](C(=O)N[C@@H](CC(C)C)C(=O)N[C@H](C(=O)N[C@H](C(=O)NCC(=O)N[C@@H](CC(C)C)C(=O)N1CCC[C@H]1C(=O)N[C@@H](C)C(=O)N[C@@H](CC(C)C)C(=O)N[C@H](C(=O)N[C@@H](CO)C(=O)N[C@@H](Cc1c[nH]c2ccccc12)C(=O)N[C@H](C(=O)N[C@@H](CCCCN)C(=O)N[C@@H](CCCNC(=N)N)C(=O)N[C@@H](CCCCN)C(=O)N[C@@H](CCCNC(=N)N)C(=O)N[C@@H](CCC(N)=O)C(=O)N[C@@H](CCC(N)=O)C(N)=O)[C@@H](C)CC)[C@@H](C)CC)[C@@H](C)O)[C@@H](C)O)C(C)C)C(C)C
Activity (Enterococcus faecalis [12]): Active
Activity (Enterococcus faecalis [13]): Active
Activity (Enterococcus faecalis [14]): Active

CO[C@@]1(NC(=O)Cc2cccs2)C(=O)N2C(C(=O)O)=C(COC(N)=O)CS[C@@H]21 [CEFOXITIN]
MIC (Staphylococcus aureus [2]): > 16 µg/mL

CC(C)=CCc1c(O)c(CC=C(C)C)c2oc3c(O)cccc3c(=O)c2c1O [8-DEOXYGARTANIN]
MIC (Enterococcus faecalis [1]): > 16 µg/mL
MIC (Staphylococcus aureus [2]): > 16 µg/mL

COc1cc2oc3cc(OC)c(OC)c(CC=C(C)C)c3c(=O)c2c(O)c1CC=C(C)C
MIC (Enterococcus faecalis [1]): > 16 µg/mL
MIC (Staphylococcus aureus [2]): > 16 µg/mL

COc1cc2oc3cc(O)c(OC)c(CC=C(C)C)c3c(=O)c2c(O)c1CC=C(C)C
MIC (Enterococcus faecalis [1]): 16 µg/mL (≈ 37.7 µM)
MIC (Staphylococcus aureus [2]): > 16 µg/mL
